# Values quoted from earlier work as cited in patent US8772510B2, “PDE10 modulators” (Hoffmann-La Roche Inc., priority 2011, dated 2014).
# Target: PDE10A (Rattus norvegicus (Rat), UniProt Q9QYJ6)
# Conditions: rats, sub-chronic treatment with PCP; Rodefer et al. 2005
# Sequence of PDE10A (Q9QYJ6 whole entry): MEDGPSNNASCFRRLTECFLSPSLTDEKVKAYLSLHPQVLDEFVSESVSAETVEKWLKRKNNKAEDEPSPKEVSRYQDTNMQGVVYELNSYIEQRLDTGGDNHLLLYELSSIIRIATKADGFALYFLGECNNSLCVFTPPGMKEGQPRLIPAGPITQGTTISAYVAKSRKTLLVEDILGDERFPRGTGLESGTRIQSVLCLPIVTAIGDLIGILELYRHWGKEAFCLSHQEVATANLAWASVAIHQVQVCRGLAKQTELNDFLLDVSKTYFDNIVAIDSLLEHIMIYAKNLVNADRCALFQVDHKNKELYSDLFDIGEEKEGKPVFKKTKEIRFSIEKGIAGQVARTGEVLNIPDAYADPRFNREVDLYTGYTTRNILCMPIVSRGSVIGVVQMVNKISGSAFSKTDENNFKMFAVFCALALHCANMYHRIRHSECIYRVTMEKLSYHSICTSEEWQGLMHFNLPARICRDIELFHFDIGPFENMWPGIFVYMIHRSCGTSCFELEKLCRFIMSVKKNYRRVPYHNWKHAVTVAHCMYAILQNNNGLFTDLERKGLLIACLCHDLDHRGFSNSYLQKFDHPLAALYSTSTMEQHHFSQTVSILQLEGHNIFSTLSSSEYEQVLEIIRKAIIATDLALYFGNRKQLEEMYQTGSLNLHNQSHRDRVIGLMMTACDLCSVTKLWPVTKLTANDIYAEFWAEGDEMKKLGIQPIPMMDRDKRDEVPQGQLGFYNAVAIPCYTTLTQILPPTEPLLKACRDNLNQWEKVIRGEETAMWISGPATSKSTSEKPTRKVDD
structure (smiles),measurement,value
"COc1ccc(Cc2nccc3cc(OC)c(OC)cc23)cc1OC [papaverine, Papaverine]",deficits in extra-dimensional shift learning,attenuate the deficits in the extra-dimensional shift learning
